Where no end group is shown, it is not given here.
Columns and labels:
nucleophosmin = assay: Binding of biotinylated Nucant to nucleophosmin on HuT 78 cells (avidin recovery, immunoblotting); parameters: species or system human; conditions: HuT 78 cells, 0, 1, 2, 4, 8 μM
Procedure: (§1) Two days after seeding, subconfluent cells (about 5 × 10^6 cells/75 cm^2 flask) were incubated (45 min, 20°C) with 5 μM of HB-19/Btn. After washing extensively in PBS containing 1 mM EDTA (PBS-EDTA), nucleus-free cell extracts were prepared in lysis buffer E. The complex formed between cell-surface expressed nucleolin and HB-19/Btn was isolated by purification of the extracts using NeutrAvidin agarose (100 μl; Pierce Biotechnology) in PBS-EDTA. After 3 hours at 6°C, the avidin-agarose samples were washed extensively with PBS-EDTA. The purified surface nucleolin was eluted in the electrophoresis sample buffer containing SDS and analyzed by 10% SDS-polyacrylamide gel electrophoresis (SDS-PAGE). […] All cells investigated in this study (MDA-MB-231, MDA-MB-435, LNCaP, HeLa, SW480, SW620, and T29) expressed the cell surface nucleolin assayed by this procedure.
(§2) Figure 9 Nucant pseudopeptides bind surface nucleolin at a higher affinity compared to binding to nucleophosmin. A. Recovery of surface nucleolin and associated proteins by using biotinylated Nucant. […] Purified material was then analyzed by SDS-PAGE and stained with Brilliant Blue G-Colloidal Concentrate staining (panel Staining). Similar samples were also analyzed by immunoblotting using anti-nucleolin mAb D3 (panel anti-nucleolin) or anti-nucleophosmin mAb EP1848Y (panel anti-nucleophosmin)(Methods). […]

HuT 78 = assay: Cell death (trypan blue uptake); assay type: cell-based, human; conditions: HuT 78 cells, 15 μM, after 24 of culture
Procedure: Human breast (MDA-MB-231, MDA-MB-435 [37]), prostate (LNCaP, from American Type Culture Collection, ATCC, Rockville, MD), and cervical (HeLa) epithelial cancer cells were grown in DMEM-glutamax medium (Gibco Invitrogen, Cergy-Pontoise, France) containing GlutaMAX™, 4.5 g/l glucose and supplemented with 10% heat-inactivated (56°C for 30 min) fetal bovine serum (FBS; Hyclone, Thermo Fisher Scientific, Inc). Human SW480 cells are derived from a grade 3-4 colon carcinoma, while the highly metastatic counterpart SW620 is established from the lymph node of a person. Both SW480 and SW620 cells (obtained from Francis Raul, IRCAD) are highly tumorigenic in nude mice. They were cultured in D-MEM, 10% FCS. The murine melanoma TIII cell line was obtained from Armelle Prévost-Blondel. Murine T29 lymphoma cells, obtained from Philippe Kastner (CNRS, Strasbourg), have been established from Ik^L/L tumors from mice carrying a hypomorphic mutation (Ik^L/L) in the Ikaros gene encoding a transcription factor that regulates lymphocyte differentiation, and acts also as a tumor suppressor in T lymphocytes. The T29 cells were cultured in RPMI medium containing 25 mM Hepes pH 7.6, 1 mM sodium pyruvate, and 10% FCS. Human leukemia cell lines, Jurkat (acute T cell leukemia), HuT 78 (cutaneous T lymphocyte), RAJI (Burkitt lymphoma), and HL60 (promyelocytic leukemia) were cultured in RPMI-1640 medium (Gibco) containing GlutaMAX™, and supplemented with 10% heat-inactivated FBS as described before. The wild-type Chinese hamster ovary cell line (CHO K1) was purchased from American Type Culture Collection (ATCC; Rockville, MD). The CHO LRP1-null cell line (CHO-13-5-1) was kindly provided by D. Strickland [47]. They were cultured in Ham's F12K medium. All cells were cultured with 10% (v/v) heat inactivated (56°C, 30 min) fetal bovine serum (FBS) (Roche Molecular Biochemicals, Indianapolis, IN) and 50 international units/mL penicillin-streptomycin (Invitrogen). Cell death was monitored conveniently by uptake of the trypan blue dye due to plasma membrane permeability of dying and/or dead cells. […]

surface nucleolin [1] = assay: Binding of biotinylated Nucant to surface nucleolin on HuT 78 cells (avidin recovery, immunoblotting); parameters: species or system human; conditions: HuT 78 cells, 0, 1, 2, 4, 8 μM
Procedure: as §1, §2

HuT 78 cells = assay: Cell entry and localization of biotinylated pseudopeptides, immunofluorescence; assay type: cell-based, human; conditions: HuT 78, 15 μM, 37°C, 5 hours, PFA/Triton fixation, anti-biotin immunofluorescence
Procedure: Figure 8 Nucant pseudopeptides are internalized into cells and accumulate in the cytoplasm without translocation to the nucleus. […] C. […] The nuclei stained with DAPI are shown on the right of each panel. Treatment of HuT 78 cells at 15 μM of biotinylated N3 or N7 leads to 25 and 40% cell death after 24 of culture, respectively.

surface nucleolin [2] = assay: Binding of biotinylated Nucant to surface nucleolin on MDA-MB 231 cells (avidin recovery, immunoblotting); parameters: species or system human; conditions: data not presented
Procedure: as §1, §2

## biotinylated N7: biotinylated hexavalent N7 pseudopeptide (chain 1 KAKPGKAKPGKAKPG; chain 2 Lys-Pro-Arg; also: biotinylated (site not given here), hexavalent branched pseudopeptide, linkage not given here)
nucleophosmin
  concentration at which nucleophosmin binding occurs: 8 µM
HuT 78
  cell death: 40%
Surface nucleolin [1]
  concentration of maximum binding to surface nucleolin: 4 µM
HuT 78 cells
  cell entry / intracellular localization: most of the signal is located in the cytoplasm, with almost no signal in the nuclei
Surface nucleolin [2]
  concentration of maximum binding to surface nucleolin: 3 µM

Reference: article PMC3199867, “Targeting surface nucleolin with multivalent HB-19 and related Nucant pseudopeptides results in distinct inhibitory mechanisms depending on the malignant tumor cell type” (BMC Cancer, 2011)
